# Experiments:
# FKBP12 = target: T1, FKBP12 (Homo sapiens, UniProt P62942); experiment: Surface plasmon resonance, binding to immobilized FKBP12; details: SPR
# T1 construct: made in house
# Experimental: (§1) Surface Plasmon Resonance. Amide coupling was used to generate a carboxymethyldextran (CMS; BIAcore, Uppsala, Sweden) sensor chip bearing a mockimmobilized surface on flow chamber 1 (Fc1), 950 RU of Aβ(1-40) (SEQ ID NO: 3) (AnaSpec, San Jose, Calif.) on Fc2, and 2800 RU of bacterially-expressed recombinant FKBP12 on Fc3. The regeneration conditions were as follows: for removing analyte from Aβ surfaces (4 M guanidine HCl, 10 mM Tris buffer pH 8.0) and for removing analyte from the FKBP surface (750 mM NaCl, 250 mM NaOH). To calculate KD1 and KD2 (±SEM) for Aβ binding (in part C), the control signal was subtracted and data was fit according to the method of Cairo et al. (Biochemistry 41, 8620-8629 (2002). In each case, eight concentrations of analyte distributed around the KD were injected in duplicate in the running buffer (HBS-EP; BIAcore). Congo red is not uniquely specific for Aβ and, consistent with this, it also binds FKBP, but at a KD 20-fold higher than SLF-CR.
# Aβ(1-42) [1] = target: T2, Aβ(1-42) (Homo sapiens, UniProt P05067); experiment: Transmission electron microscopy of Aβ fibrils; assay type: biochemical; details: for size or abundance of Aβ fibrils (TEM): 1 uM drug, 1 μM FKBP where present
# T2 construct: purchased AnaSpec, San Jose, Calif; host or cells: synthetic peptide
# Experimental: Transmission Electron Microscopy (TEM). Electron microscopy was performed essentially as previously described (Gordon, D. J. and Meredith, S. C. (2003) Biochemistry 42:475-485). Briefly, solutions subjected to the fibrillization conditions described above were applied to Formvar coated 400-mesh glow-discharged copper grids and contrasted with 1% uranyl acetate solution. Grids were analyzed at 80 kV and a magnification of 100,000×. Transmission Electron Microscopy. TEM was conducted using 300 mesh formvar-coated copper grids and 1% uranyl acetate stain on a JEOL TEM1230 and imaged with a Gatan 967 slow-scan CCD at 80 kV. Samples were incubated for 4 days at 22° C. in PBS pH 7.2 containing 25 uM Aβ(1-42) (SEQ ID NO: 2), 1 μM FKBP and 1 uM drug, where appropriate. The protocol used to prepare Aβ can influence fibrillogenesis and the reproducibility of the assays. Therefore, it can be useful to examine Aβ aggregation under a variety of conditions. In addition to the hydroxide method used above, stock solutions of Aβ were also prepared using a trifluoroacetic acid (TFA) protocol (Crystal, et al., J. Neurochem. 86, 1359-1368 (2003). TEM on samples originated from these stock solutions yielded similar results, although the typical size of the fibrils was considerably shorter.
# Rat hippocampal neurons [2] = experiment: Tunel staining / immunofluorescence microscopy of neurons exposed to Aβ; assay type: cell-based; details: for Tunel positive cells / Aβ toxicity: Aβ 25 uM, drug and FKBP 1 uM, incubated with Aβ prior to addition
# Experimental: Immunofluorescence Microscopy. Rat hippocampal neurons (P0) were cultured 10 days on Matrigel-coated glass coverslips (Deckgläser, Germany) in 24-well plates (Corning) at 37° C. and 5% CO2. Aβ solutions were prepared and applied as above. The final concentration of Aβ was 25 uM and drug and FKBP were present at 1 uM. Following a two-day incubation, cells were prepared for microscopy as described (R. Kayed, et al., Science 300, 486-489 (2003).
# Aβ(1-40) = target: T3, Aβ(1-40) (Homo sapiens, UniProt P05067); experiment: Surface plasmon resonance, binding to immobilized Aβ(1-40)
# T3 construct: purchased AnaSpec, San Jose, Calif; host or cells: synthetic peptide
# Experimental: as §1
# Aβ(1-42) [3] = experiment: Atomic force microscopy of Aβ aggregates; assay type: biochemical; details: samples containing Aβ(1-42) and FKBP
# Experimental: Atomic Force Microscopy. Samples for AFM were prepared as for TEM, above, applied to a clean silicon surface, washed twice with dH2O, dried, and imaged at a scan rate of 1 Hz using a silicon probe (TESP) on an AFM Nanoscope Dimension 3000 (Digital Instruments) in Tapping Mode (C. Goldsbury, et al, J. Mol. Biol. 285, 33-39 (1999). The dimensions of the globular aggregates in the samples treated with SLF-CR/FKBP were approximated using NIH Image.
# Rat hippocampal neurons [4] = experiment: MTT cell viability assay, neurons exposed to pre-treated Aβ(1-42); assay type: cell-based; details: high molar concentrations of Aβ; SLF-Benz-CR at 100 nM
# Experimental: Cell Viability Assay. Rat hippocampal (E19.5 and P0) neurons were prepared as previously described (Graef, et al., Nature 401, 703-708 (1999). Fresh Aβ(1-42) (100 uM) (SEQ ID NO: 2) was prepared under basic conditions and incubated with inhibitors for two days at 22° C. in PBS pH 7.2 and then diluted 1:4 with culture media and applied to neurons. MTT assays were conducted as per manufacturer's specifications after two additional days of incubation at 37° C. and 5% CO2. The inhibitor concentrations are the in vitro incubation values.
# Aβ(1-42) [5] = target: T2, Aβ(1-42); experiment: Thioflavin T fluorescence assay of Aβ aggregation; assay type: biochemical; details: highest drug concentrations
# Experimental: Fibrillization Procedure. Purified amyloid beta (1-42) (SEQ ID NO: 2) was purchased from AnaSpec and used without further purification. Fibrillization conditions are based on those previously described by Gordon and Meredith (Gordon, D. J. and Meredith, S. C. (2003) Biochemistry 42:475-485). Briefly, peptide was dissolved in PBS to a final concentration of 100 uM. To this solution, was added either FKBP12 (to a final concentration of 1 uM) or an equivalent volume of buffer alone (100 mM NaCl, 10 mM Tris-HCl pH 7.0). Additionally, either agent (dissolved in DMF) or DMF alone was added. These mixtures were placed at room temperature for at least 4 days without disruption. Thioflavin T assay. […] The mixture was vortexed briefly and the fluorescence emission maximum measured. For the dose dependence experiment, the emission wavelength was recorded at 490 nm. […] Turbidity was measured at 30° C. with orbital shaking in half area, nonbinding surface 96-well plates (Corning) on a TECAN GENios plate reader. […] Fluorescence was measured on a SpectraMax Gemini (Molecular Devices, Sunnyvale, Calif.), using an excitation wavelength of 446 nm (±5 nm) and an emission of 490 nm (±5 nm). The data was fit to sigmoidal curves using DeltaGraph (DeltaPoint, Inc) and the IC50 for each treatment recorded. […] A linear relationship between thioflavin T fluorescence and percent aggregation was used for simplicity.
# Aβ(1-42) [6] = target: T2, Aβ(1-42); experiment: Light scattering (turbidity) of Aβ(1-42) fibrillogenesis; assay type: biochemical
# Experimental: Light Scattering. Fresh A13(1-42) (Anaspec, San Jose, Calif.) (SEQ ID NO: 2) was prepared by resuspending the peptide in […] pH 9.5 to 10, sonicating for 5 minutes, and passing the resulting solutions through a 10 kDa filter (YM-10; Millipore, Bedford, Mass.) (31). Stock solutions (100 μM in 2 mM NaOH) were stored at −80° C. and diluted to 25 uM with PBS pH 7.2 to initiate fibrillogenesis. Identical methods were used to prepare the Aβ(1-42) (SEQ ID NO: 2) solutions utilized for TEM, AFM, MTT, Tunel and thioflavin T experiments. Turbidity was measured at 30° C. with orbital shaking in half area, nonbinding surface 96-well plates (Corning) on a TECAN GENios plate reader. The total volume was 50 uL and the concentration of FKBP was 1 uM. The results are representative of two independent experiments each performed in triplicate.
# T1 sequence (P62942 whole entry): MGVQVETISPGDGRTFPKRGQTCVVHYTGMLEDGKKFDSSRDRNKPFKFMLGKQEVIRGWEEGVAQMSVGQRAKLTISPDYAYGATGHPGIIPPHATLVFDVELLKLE
# T2 sequence (P05067 672-713): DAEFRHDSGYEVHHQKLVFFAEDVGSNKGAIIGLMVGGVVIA
# T3 sequence (P05067 672-711): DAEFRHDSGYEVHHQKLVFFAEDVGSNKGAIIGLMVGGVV
Compound,binding to immobilized FKBP (FKBP12),size or abundance of Aβ fibrils (TEM) (Aβ(1-42) [1]),Tunel positive cells / Aβ toxicity (Rat hippocampal neurons [2]),effect on Aβ aggregation / turbidity (Aβ(1-42) [6]),further results
CCC(C)(C)C(=O)C(=O)N1CCCC[C@H]1C(=O)O[C@H](CCc1ccc(OC)c(OC)c1)c1cccc(OCC(=O)O)c1 [SLF],comparable affinity,–,–,–,–
CCC(C)(C)C(=O)C(=O)N1CCCCC1C(=O)OC(CCc1ccc(OC)c(OC)c1)c1cccc(OCC(=O)Nc2c(N=Nc3ccc(-c4ccc(N=Nc5cc(S(=O)(=O)O)c6ccccc6c5N)cc4)cc3)cc(S(=O)(=O)O)c3ccccc23)c1 (stereo not drawn) [SLF-CR],comparable affinity,ineffective,failed to substantially reduce the number of Tunel positive cells,–,"recruitment of FKBP to Aβ by electron microscopy (Aβ(1-42) [1]): confirmed; affinity for Aβ (Aβ(1-40); immobilized Aβ(1-40), SPR): not significantly different from that of CR; SPR response on immobilized amyloid (Aβ(1-40); ternary complex test, compound alone or pre-incubated with FKBP): ~140 RUs; fibril formation (AFM) (Aβ(1-42) [3]): failed to form fibrils"
"CC[C@@]1(O)C(=O)OCc2c1cc1n(c2=O)Cc2cc3ccccc3nc2-1 [camptothecin, reference compound]",–,–,–,–,remaining cells positive for Tunel (Rat hippocampal neurons [2]; after two days): 36%
"Nc1c(/N=N/c2ccc(-c3ccc(/N=N/c4cc(S(=O)(=O)O)c5ccccc5c4N)cc3)cc2)cc(S(=O)(=O)O)c2ccccc12 [CR, Congo red, reference compound]",–,ineffective,failed to substantially reduce the number of Tunel positive cells,modest inhibitor of turbidity,"rescue of neurons (Rat hippocampal neurons [4]): unable to rescue; KD for FKBP, fold higher than SLF-CR (FKBP12): 20 fold; thioflavin T fluorescence (Aβ(1-42) [5]): failed to fully block thioflavin T fluorescence"
"FKBP: bacterially-expressed recombinant FKBP12, FK506-binding protein, prolyl isomerase",–,does not influence the formation or architecture of Aβ fibrils,failed to substantially reduce the number of Tunel positive cells,did not interfere with Aβ aggregation,–
